Reference: patent US10104891B2 (priority 2014, dated 2018)

Legend:
Type in all cases: in vivo
[1] = system: Pseudoperonospora cubensis; test: Test 2: control effect against cucumber downy mildew; conditions: control value vs untreated section; for pest or weed control at 4 µg/mL: Pseudoperonospora cubensis, 120 h
In short: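 Cucumber (Sagami hanjiro) at 2-leaf stage sprayed with 4 ppm compound from 10% wettable powder in Tween20 (1/5000); inoculated next day with P. cubensis zoospores, 1.0×10^4 units/ml, 16 hr moist chamber at 22° C. Lesion area rate scored 5 days post-inoculation; control value = (1 − treated/untreated onset area rate)×100.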

Plasmopara viticola = test: Test 3: control effect against grape downy mildew; conditions: control value vs untreated section; for pest or weed control at 4 µg/mL: Plasmopara viticola, 120 h
In short: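 Neomuscat grape seedlings were sprayed with compound at 4 ppm, diluted from a 10% wettable powder in Tween20 solution. One day later they were inoculated with Plasmopara viticola zoospores at 1.0×10^4 units/ml and held moist at 22° C. for 16 hr. Control value was derived from leaf lesion area at 5 days versus untreated leaves.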

Phytophthora infestans = test: whole plant or invertebrate; conditions: for pest or weed control at 4 µg/mL: Phytophthora infestans, in Solanum lycopersicum, 96 h, read-out: control value (Test 1); for control value (Test 1): tomato late blight, control value vs untreated section

Structure (SMILES) | pest or weed control at 4 µg/mL [1] [%] | pest or weed control at 4 µg/mL (Plasmopara viticola) [%] | pest or weed control at 4 µg/mL (Phytophthora infestans) [%] | control value (Test 2) [1] | control value (Test 3) (Plasmopara viticola) | control value (Test 1) (Phytophthora infestans)
CS(=O)(=O)Oc1cccc2c1COC(c1csc(C3CCN(C(=O)Cn4nc(C(Cl)Cl)cc4C(Cl)Cl)CC3)n1)OC2 (stereo not drawn) [Compound 1-119, 4-[4-(6-methylsulfonyloxy-1,5-dihydro-3H-2,4-benzodioxepin-3-yl)-2-thiazolyl]-1-[2-[3,5-bis(dichloromethyl)-1H-pyrazole-1-yl]acetyl]piperidine] | 100 | 100 | 100 |  |  | 
Cc1ccc(C)c(CC(=O)N2CCC(c3nc(C4OCc5c(Cl)ccc(OS(C)(=O)=O)c5CO4)cs3)CC2)c1 (stereo not drawn) [Compound 2-38] |  |  |  | 100 | 100 | 100
Cc1cc(C(F)(F)F)nn1CC(=O)N1CCC(c2nc(C3OCc4c(F)ccc(OS(C)(=O)=O)c4CO3)cs2)C(C)C1 (stereo not drawn) [Compound 1-157] |  |  |  | 100 | 100 | 100
CC(C)S(=O)(=O)Oc1cccc2c1COC(c1csc(C3CCN(C(=O)Cn4nc(C(F)(F)F)cc4C(F)(F)F)CC3)n1)OC2 (stereo not drawn) [Compound 1-67] |  |  |  | 100 | 100 | 100
COc1ccc(Br)c2c1COC(c1csc(C3CCN(C(=O)Cn4nc(C(F)(F)F)cc4C)CC3)n1)OC2 (stereo not drawn) [Compound 1-24] |  |  |  | 100 | 100 | 100
Cc1cc(C(F)(F)F)nn1CC(=O)N1CCC(c2nc(C3OCc4cccc(CO)c4CO3)cs2)CC1 (stereo not drawn) [Compound 1-52] |  |  |  | 100 | 100 | 100
CS(=O)(=O)Oc1ccc(Br)c2c1COC(c1csc(C3CCN(C(=O)Cn4nc(C(F)F)cc4C(F)F)CC3)n1)OC2 (stereo not drawn) [Compound 1-125] |  |  |  | 100 | 100 | 100
Cc1cc(C(F)(F)F)nn1CC(=O)N1CCC(c2nc(C3OCc4ccc([N+](=O)[O-])cc4CO3)cs2)CC1 (stereo not drawn) [Compound 1-27] |  |  |  | 100 | 100 | 100
Cc1cc(C(F)(F)F)nn1CC(=O)N1CCC(c2nc(C3OCc4cccc(-c5ccccc5)c4CO3)cs2)CC1 (stereo not drawn) [Compound 1-56] |  |  |  | 100 | 100 | 90
COc1ccc(OS(C)(=O)=O)c2c1COC(c1csc(C3CCN(C(=O)Cc4cc(C)ccc4C)CC3)n1)OC2 (stereo not drawn) [Compound 2-28] |  |  |  | 100 | 100 | 90
O=C(Cn1nc(C(F)F)cc1C(F)F)N1CCC(c2nc(C3OCc4c(F)c(F)c(F)c(F)c4CO3)cs2)CC1 [Compound 1-55] |  |  |  | 100 | 100 | 100
O=C(Cn1nc(C(F)F)cc1C(F)F)N1CCC(c2nc(C3OCc4cc5c(cc4CO3)CCC5)cs2)CC1 [Compound 1-61, 4-[4-(1,5,7,8,9-pentahydro-3H-2,4-indenodioxepin-3-yl)-2-thiazolyl]-1-[2-[3,5-bis(difluoromethyl)-1H-pyrazole-1-yl]acetyl]piperidine] |  |  |  | 100 | 100 | 100
CS(=O)(=O)Oc1ccc(Cl)c2c1COC(c1csc(C3CCN(C(=O)Cc4cc(Cl)ccc4Cl)CC3)n1)OC2 (stereo not drawn) [Compound 2-41] |  |  |  | 100 | 100 | 100
CC1OC(c2csc(C3CCN(C(=O)Cn4nc(C(F)F)cc4C(F)F)CC3)n2)OCc2ccccc21 (mixture of isomers) [Compound 1-75] |  |  |  | 100 | 100 | 100
CS(=O)(=O)Oc1c(F)ccc2c1COC(c1csc(C3CCN(C(=O)Cn4nc(C(F)F)cc4C(F)F)CC3)n1)OC2 (stereo not drawn) [Compound 1-132, 4-[4-(7-fluoro-6-methylsulfonyloxy-1,5-dihydro-3H-2,4-benzodioxepin-3-yl)-2-thiazolyl]-1-[2-[3,5-bis(difluoromethyl)-1H-pyrazole-1-yl]acetyl]piperidine] | 100 | 100 | 100 |  |  | 
CS(=O)(=O)Oc1ccc([N+](=O)[O-])c2c1COC(c1csc(C3CCN(C(=O)Cn4nc(C(F)F)cc4C(F)F)CC3)n1)OC2 (stereo not drawn) [Compound 1-124] |  |  |  | 100 | 100 | 100
Cc1cc(C(F)(F)F)nn1C(C)C(=O)N1CCC(c2nc(C3OCc4cccc(OS(C)(=O)=O)c4CO3)cs2)CC1 (stereo not drawn) [Compound 1-152] |  |  |  | 100 | 100 | 100
COc1ccc(OS(C)(=O)=O)c2c1COC(c1csc(C3CCN(C(=O)Cn4nc(C(F)(F)F)cc4Cl)CC3)n1)OC2 (stereo not drawn) [Compound 1-108] |  |  |  | 100 | 100 | 100

Structure (SMILES) | pest or weed control at 4 µg/mL [1] [%] | pest or weed control at 4 µg/mL (Plasmopara viticola) [%] | pest or weed control at 4 µg/mL (Phytophthora infestans) [%] | control value (Test 2) [1] | control value (Test 3) (Plasmopara viticola) | control value (Test 1) (Phytophthora infestans)
Cc1ccc(C)c(CC(=O)N2CCC(c3nc(C4OCc5c(OS(C)(=O)=O)ccc(OS(C)(=O)=O)c5CO4)cs3)CC2)c1 [Compound 2-53] |  |  |  | 100 | 100 | 100
CS(=O)(=O)Oc1ccc(I)c2c1COC(c1csc(C3CCN(C(=O)Cc4cc(Cl)ccc4Cl)CC3)n1)OC2 (stereo not drawn) [Compound 2-44, 4-[4-(6-iodo-9-methylsulfonyloxy-1,5-dihydro-3H-2,4-benzodioxepin-3-yl)-2-thiazolyl]-1-[2-(2,5-dichlorophenyl)acetyl]piperidine] | 100 | 100 | 90 |  |  | 
Cc1cc(C(F)F)nn1CC(=O)N1CCC(c2nc(C3OCc4c(F)ccc(OS(C)(=O)=O)c4CO3)cs2)CC1 (stereo not drawn) [Compound 1-153] |  |  |  | 100 | 100 | 100
CS(=O)(=O)Oc1cccc2c1COC(c1csc(C3CCN(C(=O)Cc4cc(C(F)(F)F)ccc4C(F)(F)F)CC3)n1)OC2 (stereo not drawn) [Compound 2-30, 4-[4-(6-methylsulfonyloxy-1,5-dihydro-3H-2,4-benzodioxepin-3-yl)-2-thiazolyl]-1-[2-[2,5-bis(trifluoromethyl)phenyl]acetyl]piperidine] | 100 | 100 | 30 |  |  | 
Cc1cc(C(F)(F)F)nn1CC(=O)N1CCC(c2nc(C3OCc4cccc(C#N)c4CO3)cs2)CC1 (stereo not drawn) [Compound 1-104] |  |  |  | 100 | 100 | 100
CS(=O)(=O)Oc1ccc2c(c1)COC(c1csc(C3CCN(C(=O)Cn4nc(C(F)F)cc4C(F)F)CC3)n1)OC2 (stereo not drawn) [Compound 1-138] |  |  |  | 100 | 100 | 100
O=C(Cn1nc(C(F)F)cc1C(F)F)N1CCC(c2nc(C3OCc4cccc(-c5ccccc5)c4CO3)cs2)CC1 (stereo not drawn) [Compound 1-73] |  |  |  | 100 | 100 | 90
Cc1cc(C(F)(F)F)nn1C(F)(F)C(=O)N1CCC(c2nc(C3OCc4c(F)ccc(OS(C)(=O)=O)c4CO3)cs2)CC1 (stereo not drawn) [Compound 1-155] |  |  |  | 100 | 100 | 100
COc1ccc(OS(C)(=O)=O)c2c1COC(c1csc(C3CCN(C(=O)CON=CC(F)(F)F)CC3)n1)OC2 (stereo not drawn) [Compound 3-5] |  |  |  | 100 | 100 | 100
Cc1cc(C(F)(F)F)nn1CC(=O)N1CCC(c2nc(C3OCc4ccc(OS(C)(=O)=O)cc4CO3)cs2)CC1 (stereo not drawn) [Compound 1-9] |  |  |  | 80 | 100 | 100
CS(=O)(=O)Oc1cccc2c1COC(c1csc(C3CCN(C(=O)CON=CC(F)(F)F)CC3)n1)OC2 (stereo not drawn) [Compound 3-6] |  |  |  | 100 | 100 | 100
O=C(Cn1nc(C(F)F)cc1C(F)F)N1CCC(c2nc(C3OCc4ccccc4CO3)cs2)CC1 [Compound 1-76] |  |  |  | 100 | 100 | 100
Cc1cc(C(F)(F)F)nn1CC(=O)N1CCC(c2nc(C3OCc4cccc(OS(=O)(=O)C(C)C)c4CO3)cs2)CC1 (stereo not drawn) [Compound 1-28] |  |  |  | 100 | 100 | 100
Cc1cc(C(F)(F)F)nn1CC(=O)N1CCC(c2nc(C3OCc4c(I)ccc(OS(C)(=O)=O)c4CO3)cs2)CC1 (stereo not drawn) [Compound 1-101] |  |  |  | 100 | 100 | 100
COc1cccc2c1COC(c1csc(C3CCN(C(=O)Cn4nc(C(F)F)cc4C(F)F)CC3)n1)OC2 (stereo not drawn) [Compound 1-141] |  |  |  | 100 | 100 | 100
O=C(Cn1nc(C(F)(F)F)cc1C(F)(F)F)N1CCC(c2nc(C3OCc4cccc(Br)c4CO3)cs2)CC1 (stereo not drawn) [Compound 1-111] |  |  |  | 100 | 100 | 100
Cc1ccc(C)c(CC(=O)N2CCC(c3nc(C4OCc5c(F)ccc(F)c5CO4)cs3)CC2)c1 [Compound 2-6] |  |  |  | 100 | 100 | 100
CCS(=O)(=O)Oc1ccc2c(c1)COC(c1csc(C3CCN(C(=O)Cn4nc(C(F)(F)F)cc4C)CC3)n1)OC2 (stereo not drawn) [Compound 1-29] |  |  |  | 90 | 100 | 100
